Source: US20230141981A1, “NOVEL COMPOUNDS AND COMPOSITION FOR TARGETED THERAPY OF KIDNEY-ASSOCIATED CANCERS” (SHANGHAI MICURX PHARMACEUTICALS CO., LTD, priority 2020, published 2023)
One block for each compound: values may come before it. Bridge positions count the residues as written; N and C are the ends. Square brackets hold non-standard residues; d marks the D form. Peptide text beside a SMILES is read from it. * marks the point of attachment. X1 = CNC(=O)c1ccccc1Sc1ccc2c(/C=C/c3ccccn3)nn(C(=O)N(CCNC(=O)CC[C@H](N)C(=O)O)CCC(=O)*)c2c1; X3 = CNC(=O)c1ccccc1Sc1ccc2c(/C=C/c3ccccn3)nn(C(=O)*)c2c1; Dab = NCC[C@H](N)C(=O)O

Tests used:
Caki-1 = assay: In vitro inhibition of cancer cells, CTG assay, 72 h; type: cell-based, human; details: Caki-1, 72 h incubation
Excerpt: In vitro activity of compounds provided herein may be assessed by standard testing procedures using various cancer cell lines (alongside normal cell comparators), such as described, for example, in ACS Pharmacol. Transl. Sci. 2019, vol. 2, p. 18; J. Med. Chem. 2018, vol. 61, p. 5304; and methods in references cited therein.
Therein, Caki-1 is a human clear cell renal cell carcinoma (ccRCC) line. The ACTHN cell line was derived from the pleural effusion of a patient with metastatic renal carcinoma. The 786-O cell line is a hypertriploid renal cancer cell carcinoma cell line. Generally, cells were plated into […] microplates and pre-incubated for 24 h. Subsequently, the test compound solutions were added, and cells growth inhibition analyzed with 9-point data plot. After 72 h of the incubation, the number and proportion of the viable cells was determined by CTG assay, and IC50 values calculated.

[1] = 14-days repeat-dose mouse tolerability test; details: in vivo, 18 mg/kg/day, read-out: well-tolerated dose, 14-days repeat-dose
Excerpt: In addition the high efficacy against renal cancers, such drug must be well-tolerated.

[2] = Mouse PK: axitinib concentration in blood plasma and kidney tissue post-administration; type: in vivo; details: oral gavage, single dose 10 mg/kg
Method: Preferential accumulation of compounds provided herein in kidneys (or near the site of a kidney cancer) may be evaluated by pharmacokinetic (PK) tests, such as in a standard rat PK test.
In PK studies, the levels (concentration) of a therapeutic drug is determined in key body compartments, such as blood and select organ tissues, is determined over a given time course. […] For therapy of renal cancers, the targeted organ is kidney.

Structure (SMILES): CNC(=O)c1ccccc1Sc1ccc2c(/C=C/c3ccccn3)nn(C(=O)N(CCNC(=O)CC[C@H](N)C(=O)O)CCC(=O)N[C@H](C(=O)N[C@@H](CCN)C(=O)N[C@H]3CCNC(=O)[C@H]([C@@H](C)O)NC(=O)[C@H](CCN)NC(=O)[C@H](CCN)NC(=O)[C@H](CC(C)C)NC(=O)[C@@H](Cc4ccccc4)NC(=O)[C@H](CCN)NC3=O)[C@@H](C)O)c2c1 [Example 29] (X1-T[Dab][Dab][Dab][dF]L[Dab][Dab]T; lactam 3-C; N-terminus assumed)
MTD at 336 h [1]: ≥ 18 mg/kg/day

Structure (SMILES): CCN(CC)CCNC(=O)c1c(C)[nH]c(/C=C2\C(=O)Nc3ccc(F)cc32)c1C [Sunitinib, (Z)—N-(2-(diethylamino)ethyl)-5-((5-fluoro-2-oxoindolin-3-ylidene)methyl)-2,4-dimethyl-1H-pyrrole-3-carboxamide]
IC50 (Caki-1; Homo sapiens): 6.9 µM

Structure (SMILES): Cc1ccc(Nc2nccc(N(C)c3ccc4c(C)n(C)nc4c3)n2)cc1S(N)(=O)=O [Pazopanib, 5-[[4-[(2,3-dimethylindazol-6-yl)-methylamino]pyrimidin-2-yl]amino]-2-methylbenzenesulfonamide]
IC50 (Caki-1; Homo sapiens): 19.4 µM

The remaining lines, values ahead:

IC50 (Caki-1): 8.6 µM
Structure (SMILES): CNC(=O)c1ccccc1Sc1ccc2c(/C=C/c3ccccn3)nn(C(=O)N[C@@H](CCN)C(=O)N[C@H](C(=O)N[C@@H](CCN)C(=O)N[C@H]3CCNC(=O)[C@H]([C@@H](C)O)NC(=O)[C@H](CCN)NC(=O)[C@H](CCN)NC(=O)[C@H](CC(C)C)NC(=O)[C@@H](Cc4ccccc4)NC(=O)[C@H](CCN)NC3=O)[C@@H](C)O)c2c1 [Example 17] (X3-[Dab]T[Dab][Dab][Dab][dF]L[Dab][Dab]T; lactam 4-C)

Blood Plasma Conc. (axitinib) ([2]; T = 4 h): T = 4 h: 95.1 ng/mL
Blood Plasma Conc. (axitinib) ([2]; T = 6 h): T = 6 h: 35.4 ng/mL
Structure (SMILES): CNC(=O)c1ccccc1Sc1ccc2c(/C=C/c3ccccn3)n[nH]c2c1 [Axitinib, N-methyl-2-[[3-[(E)-2-pyridin-2-ylethenyl]-1H-indazol-6-yl]sulfanyl]benzamide]
